From US8536354B2, “Steroidal ligands and their use in gene switch modulation” (Intrexon Corporation, priority 2008, dated 2013)
Where two headings read alike, the source gives them in different places.

How the values were obtained:
[1] = target: T1, TmEcR (GAL4-EcR DEF with VP16-RXR partner) (Tenebrio molitor, UniProt O02035); test: Two-hybrid gene switch assay, luciferase reporter, TmEcR, mouse NIH3T3 cells
T1 sequence (O02035 194-491): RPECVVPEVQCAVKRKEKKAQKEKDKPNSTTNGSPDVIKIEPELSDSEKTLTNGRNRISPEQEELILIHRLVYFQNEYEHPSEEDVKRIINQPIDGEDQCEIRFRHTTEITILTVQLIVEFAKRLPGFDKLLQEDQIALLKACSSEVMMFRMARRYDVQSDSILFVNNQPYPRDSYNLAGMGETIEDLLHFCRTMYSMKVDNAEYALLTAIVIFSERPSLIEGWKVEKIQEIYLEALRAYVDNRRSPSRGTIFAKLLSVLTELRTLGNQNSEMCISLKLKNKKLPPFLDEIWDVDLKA
T1 sequence (P28704 1-520 partner): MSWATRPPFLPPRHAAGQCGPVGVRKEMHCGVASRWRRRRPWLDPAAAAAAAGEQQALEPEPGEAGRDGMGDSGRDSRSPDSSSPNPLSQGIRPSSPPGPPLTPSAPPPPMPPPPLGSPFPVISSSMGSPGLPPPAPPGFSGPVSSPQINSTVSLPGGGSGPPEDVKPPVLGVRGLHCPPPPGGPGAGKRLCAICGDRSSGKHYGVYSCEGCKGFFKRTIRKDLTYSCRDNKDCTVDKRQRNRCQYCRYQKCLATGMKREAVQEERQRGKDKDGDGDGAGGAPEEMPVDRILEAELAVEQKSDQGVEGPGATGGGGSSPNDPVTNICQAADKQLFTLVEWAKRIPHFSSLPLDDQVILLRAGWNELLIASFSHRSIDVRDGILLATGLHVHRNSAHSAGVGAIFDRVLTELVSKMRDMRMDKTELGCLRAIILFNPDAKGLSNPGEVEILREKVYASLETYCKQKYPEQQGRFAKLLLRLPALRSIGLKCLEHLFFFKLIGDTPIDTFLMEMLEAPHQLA

[2] = target: T2, wild-type CfEcR (GAL4-CfEcR-DEF with VP16-RXR-USP chimera) (Choristoneura fumiferana, UniProt O77255); test: Two-hybrid gene switch assay, luciferase reporter, wild-type CfEcR, mouse NIH3T3 cells
T2 sequence (O77255 219-541): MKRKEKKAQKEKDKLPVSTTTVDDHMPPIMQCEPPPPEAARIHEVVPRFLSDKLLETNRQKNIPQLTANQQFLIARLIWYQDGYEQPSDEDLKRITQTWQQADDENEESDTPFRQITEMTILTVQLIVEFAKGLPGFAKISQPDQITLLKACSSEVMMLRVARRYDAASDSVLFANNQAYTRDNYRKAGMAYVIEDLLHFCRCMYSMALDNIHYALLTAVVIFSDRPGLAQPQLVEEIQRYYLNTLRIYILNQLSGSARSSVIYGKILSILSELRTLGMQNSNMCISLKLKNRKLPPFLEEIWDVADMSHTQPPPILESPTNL
T2 sequence (P28702 1-533 partner): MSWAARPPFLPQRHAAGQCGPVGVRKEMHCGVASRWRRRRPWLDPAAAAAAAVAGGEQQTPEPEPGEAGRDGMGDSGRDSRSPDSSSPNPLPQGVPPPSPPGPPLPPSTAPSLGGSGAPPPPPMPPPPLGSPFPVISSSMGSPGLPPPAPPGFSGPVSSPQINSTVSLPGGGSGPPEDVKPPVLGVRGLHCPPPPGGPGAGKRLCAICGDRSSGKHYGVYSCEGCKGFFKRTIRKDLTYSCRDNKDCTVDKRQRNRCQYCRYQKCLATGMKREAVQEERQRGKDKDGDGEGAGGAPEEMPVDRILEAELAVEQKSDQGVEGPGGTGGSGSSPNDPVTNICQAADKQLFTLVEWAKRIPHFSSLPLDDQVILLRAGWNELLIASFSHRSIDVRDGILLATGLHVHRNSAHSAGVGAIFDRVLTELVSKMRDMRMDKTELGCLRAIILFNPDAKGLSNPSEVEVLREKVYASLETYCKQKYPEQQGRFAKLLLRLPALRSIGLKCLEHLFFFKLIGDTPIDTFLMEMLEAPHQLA

[3] = EC50, FIG. 14A/14B, GAL4-EcR(DEF)

Structure (SMILES) | EC50 [1, 3] [µM] | EC50 [2] [µM] | EC50 ([1]; EC50, FIG. 16, GAL4-EcR (DEF)) [µM] | EC50 ([2]; FIG. 15, CfEcR, GAL4-EcR (DEF) / VP16-RXR-USP chimera) [µM]
C[C@@H]1C(=O)O[C@H](C)[C@H]1C[C@@H](O)[C@](C)(O)[C@H]1CC[C@@]2(O)C3=CC(=O)[C@@H]4C[C@@H](O)[C@@H](O)C[C@]4(C)[C@H]3CC[C@]12C [cyasterone] | > 33 | ~1 | – | –
CC(C)CC[C@@H](O)[C@](C)(O)[C@H]1CC[C@@]2(O)C3=CC(=O)[C@@H]4C[C@@H](O)[C@@H](O)C[C@]4(C)[C@H]3[C@H](O)C[C@]12C [ajugasterone C] | 9.51 | ~20 | – | –
CCCCCCCCCC(=O)OC1CC2(C)C(C(C)(O)C(O)CCC(C)(C)O)CCC2(O)C2=CC(=O)C3CC(O)C(O)CC3(C)C21 (centres unmarked) [turkesterone-11a-decanoate] | > 33 | > 33 | – | –
CC(C)(O)CC[C@@H](O)[C@](C)(O)[C@H]1CC[C@@]2(O)C3=CC(=O)[C@@H]4C[C@@H](O)[C@@H](O)C[C@]4(C)C3=CC[C@]12C [Compound 25-hydroxydacryhainansterone] | ~20 | > 33 | – | –
CC(C(O)CCC(C)(C)O)C1CCC2(O)C3=CC(=O)C4CC(O)CCC4(C)C3CCC12C (centres unmarked) [Compound 2-deoxyecdysone] | > 33 | > 33 | – | –
CC(C)(O)CC[C@@H](O)[C@](C)(O)[C@H]1CC[C@@]2(O)C3=CC(=O)[C@]4(O)C[C@@H](O)[C@@H](O)C[C@]4(C)[C@H]3CC[C@]12C [polypodine B] | ~10 | ~20 | ~3 | –
CC(CC(O)C(C)(O)C1CCC2(O)C3=CC(=O)C4CC(O)C(O)CC4(C)C3CCC12C)C(C)(C)O (centres unmarked) [makisterone A] | ~20 | > 33 | – | –
CC(C)(O)CCC(=O)[C@](C)(O)[C@H]1CC[C@@]2(O)C3=CC(=O)[C@@H]4C[C@@H](O)[C@@H](O)C[C@]4(C)[C@H]3CC[C@]12C [Compound 22-dehydro-20-hydroxyecdysone] | ~15 | > 33 | – | –
C[C@@H](CO)CC[C@@H](O)[C@](C)(O)[C@H]1CC[C@@]2(O)C3=CC(=O)[C@@H]4C[C@@H](O)[C@@H](O)C[C@]4(C)[C@H]3CC[C@]12C [(25R)-inokosterone] | ~20 | > 33 | – | –
CC(C)(O)CC[C@@H](OC(=O)c1ccc[nH]1)[C@](C)(O)[C@H]1CC[C@@]2(O)C3=CC(=O)[C@@H]4C[C@@H](O)[C@@H](O)C[C@]4(C)[C@H]3CC[C@]12C | ~20 | > 33 | – | –
C[C@H](CO)CC[C@@H](O)[C@](C)(O)[C@H]1CC[C@@]2(O)C3=CC(=O)[C@@H]4C[C@@H](O)[C@@H](O)C[C@]4(C)[C@H]3CC[C@]12C [(25S)-inokosterone] | ~10 | > 33 | – | –
CC(C)(O)C(CCC(C)(O)C1CCC2(O)C3=CC(=O)C4CC(O)C(O)CC4(C)C3CCC12C)OC(=O)c1ccc[nH]1 (centres unmarked) [canescensterone] | ~0.33 | > 10 | – | –
CC1(C)OC(=O)C=C1CC(O)C(C)(O)C1CCC2(O)C3=CC(=O)C4CC(O)C(O)CC4(C)C3CCC12C (centres unmarked) [carthamosterone] | > 33 | > 33 | – | –
CC(C)(O)CC[C@@H](O)[C@](C)(O)[C@H]1CC[C@@]2(O)C3=CC(=O)[C@@H]4C[C@@H](O)[C@@H](O)C[C@]4(C)[C@H]3[C@H](O)C[C@]12C [turkesterone] | > 33 | > 33 | – | –
C[C@H]([C@H](O)CCC(C)(C)O)[C@H]1CC[C@@]2(O)C3=CC(=O)[C@@H]4C[C@@H](O)[C@@H](O)C[C@]4(C)[C@H]3CC[C@]12C [ecdysone] | > 33 | > 33 | > 33 | > 33
CC(C)(O)CC[C@@H](O)[C@](C)(O)[C@H]1CC[C@@]2(O)C3=CC(=O)[C@@H]4C[C@H]5OC(C)(C)O[C@H]5C[C@]4(C)[C@H]3CC[C@]12C [20-hydroxyecdysone-2,3-acetonide] | ~10 | > 33 | – | –
CCC(CC(O)C(C)(O)C1CCC2(O)C3=CC(=O)C4CC(O)C(O)CC4(C)C3CCC12C)C(C)(C)O (centres unmarked) [makisterone C] | ~4 | > 33 | – | –
CC(C)(O)CC[C@@H](O)[C@](C)(O)[C@H]1CC[C@@]2(O)C3=CC(=O)[C@@H]4C[C@@H](O)[C@@H](O)[C@@H](O)[C@]4(C)[C@H]3CC[C@]12C [integristerone A] | ~8 | > 33 | – | –
CC(C)(O)CC[C@@H](O)[C@](C)(O)[C@H]1CC[C@@]2(O)C3=C[C@H](O)[C@@H]4C[C@@H](O)[C@@H](O)C[C@]4(C)[C@H]3CC[C@]12C [Compound 6a-hydroxy-20-hydroxyecdysone] | > 33 | > 33 | – | –
CC(=O)O[C@H](CCC(C)(C)O)[C@](C)(O)[C@H]1CC[C@@]2(O)C3=CC(=O)[C@@H]4C[C@@H](O)[C@@H](O)C[C@]4(C)[C@H]3CC[C@]12C [Compound 20-hydroxyecdysone-22-acetate] | ~2 | > 33 | – | –
CC(=O)OCC(=O)O[C@H](CCC(C)(C)O)[C@](C)(O)[C@H]1CC[C@@]2(O)C3=CC(=O)[C@@H]4C[C@@H](O)[C@@H](O)C[C@]4(C)[C@H]3CC[C@]12C [20-hydroxyecdysone 22-acetoxyacetate] | ~10 | > 33 | – | –
CC(C)=CC[C@@H](O)[C@](C)(O)[C@H]1CC[C@@]2(O)C3=CC(=O)[C@@H]4C[C@@H](O)[C@@H](O)C[C@]4(C)[C@H]3CC[C@]12C [stachysterone C] | 1.47 | ~10 | – | –
CC(C)(O)CC[C@@H](O)[C@](C)(O)[C@H]1CC[C@@]2(O)C3=C[C@@H](O)[C@@H]4C[C@@H](O)[C@@H](O)C[C@]4(C)[C@H]3CC[C@]12C [Compound 6b-hydroxy-20-hydroxyecdysone] | ~20 | > 33 | – | –
CCCCCC(=O)OC1CC2(C)C(C(C)(O)C(O)CCC(C)(C)O)CCC2(O)C2=CC(=O)C3CC(O)C(O)CC3(C)C21 (centres unmarked) [turkesterone-11 a -hexanoate] | > 33 | > 33 | – | –
CCC(=O)OC1CC2(C)C(C(C)(O)C(O)CCC(C)(C)O)CCC2(O)C2=CC(=O)C3CC(O)C(O)CC3(C)C21 (centres unmarked) [turkesterone-11 a -propionate] | > 33 | > 33 | – | –
